# In patent US20040266814A1, “Imidazopyridine compounds having 5-HT4 receptor agonistic activity and 5-HT3 receptor antagonistic activity” (Pfizer Inc, priority 2003, published 2004):
# Where a name gives a salt, the structure may show the parent alone.
# How the values were obtained:
# rat 5-HT3 receptors = target: T1, rat 5-HT3 receptors (Rattus norvegicus, UniProt P35563); assay: Rat 5-HT3 receptor binding ([3H]-BRL 43694, rat cortical membranes); settings: read-out: r5HT3 Binding Ki
# T1 construct: Cerebral cortical tissues were removed from male Sprague-Dawley (SD) rats; from tissue; host or cells: cerebral cortex of male Sprague-Dawley rats (membranes)
# T1 sequence (P35563 24-483): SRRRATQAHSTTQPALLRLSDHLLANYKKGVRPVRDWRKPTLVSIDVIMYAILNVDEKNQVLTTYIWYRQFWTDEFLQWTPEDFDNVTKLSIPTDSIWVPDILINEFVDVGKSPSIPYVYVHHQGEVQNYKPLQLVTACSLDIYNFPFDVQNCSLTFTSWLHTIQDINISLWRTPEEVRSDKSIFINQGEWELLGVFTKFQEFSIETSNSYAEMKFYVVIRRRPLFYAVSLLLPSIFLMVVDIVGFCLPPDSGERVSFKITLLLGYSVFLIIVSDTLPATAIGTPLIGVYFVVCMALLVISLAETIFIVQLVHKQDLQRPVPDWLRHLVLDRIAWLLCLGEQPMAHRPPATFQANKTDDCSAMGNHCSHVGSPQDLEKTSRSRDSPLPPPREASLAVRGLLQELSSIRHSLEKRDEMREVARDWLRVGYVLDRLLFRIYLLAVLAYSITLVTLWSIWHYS
# Procedure: Cerebral cortical tissues were removed from male Sprague-Dawley (SD) rats (Japan SLC), weighed and placed in 10 volumes of 50 mM ice-cold Tris-HCl (pH 7.5). This was homogenized in a Polytron homogenizer (30 sec at full speed) and subsequently centrifuged at 48,000 g and 4° C. for 15 min. The resulting pellet was resuspended in 50 mM ice-cold Tris-HCl, homegenized and centrifuged again in the same way. The final pellet was resuspended in an appropriate volume of 50 mM Tris-HCl, dispensed into aliquots and stored at −80° C. until use.
# The protein concentrations of homogenates were determined by Bradford method or BCA protein method (Pierce) with BSA as a standard.
# Affinity of compounds for pig or bovine 5-HT4 and rat 5-HT3 receptors were assessed with using radiolabeled specific ligands, GR 113808 ({1-[2-(methylsulfonyl)ethyl]-4-piperidinyl} [methyl-^3H]-1H-indole-3-carboxylate) and BRL 43694 (1-Methyl-N-(9-[methyl-^3H]-9-azabicyclo [3.3.1]non-3-yl)-1H-indazole-3-caboxamide). Compounds were incubated with 25-100 pM of [^3H]-GR 113808 (Amersham) and 0.6-1 mg protein of pig or bovine striatal membranes suspended in a final volume of 0.8-1 ml of 50 mM Tris-HCl (pH 7.5). Nonspecific binding was determined with 10-50 μM 5-HT. The binding of 0.3 nM [^3H]-BRL 43694 (NEN) was measured using 400 μg protein of rat cortical membranes suspended in a final volume of 500 μl of 50 mM Tris-HCl (pH 7.5)., Nonspecific binding was determined with 10 μM 5-HT.
# The plates were incubated at room temperature on a plate shaker for 30 min. The assays were stopped by rapid filtration using a Brandell cell harvester through Wallac-B filters pre-soaked in 0.2% poly(ethylenimine) at 4° C. for 60-90 min. The filters were washed three times with 1 ml of ice-cold 50 mM HEPES, and were dried in a microwave or at room temperature. They were bagged and heated with meltilex scintillant (Wallac) or soaked in BetaplateScint (Wallac). Receptor-bound radioactivity was quantified using Big-spot counter, Betaplate counter (Wallac) or LS counter (Packard).
# [1] = target: T2, Human 5-HT4(d) transfected HEK293 cells (Homo sapiens, UniProt Q13639); assay: Agonist-induced cAMP elevation in human 5-HT4(d) transfected HEK293 cells; type: cell-based; settings: for Emax: HEK293, normalized to cAMP produced by 1000 nM serotonin, read-out: cAMP 5HT4 function Emax; for EC50: human 5-HT4(d) transfected HEK293 cells, read-out: cAMP 5HT4 function; for cAMP 5HT4 function, verdict in words: table remark in brackets
# T2 construct: expressed in transfected cells; host or cells: HEK293
# Procedure: Agonist-Induced cAMP Elevation in Human 5-HT4(d) Transfected HEK293 Cells
# Human 5-HT4(d) transfected HEK293 cells were established in-house. The cells were grown at 37° C. and 5% CO2 in DMEM supplemented with 10% FCS, 20 mM HEPES (pH 7.4), 200 μg/ml hygromycin B (Gibco), 100 units/ml penicillin and 100 μg/ml streptomycin.
# The cells were grown to 60-80% confluence. On the previous day before treatment with compounds dialyzed FCS (Gibco) was substituted for normal and the cells were incubated overnight.
# Compounds were prepared in 96-well plates (12.5 μl/well). The cells were harvested with PBS/1 mM EDTA, centrifuged and washed with PBS. At the beginning of the assay, cell pellet was resuspended in DMEM supplemented with 20 mM HEPES, 10 μM pargyline (Sigma) and 1 mM 3-isobutyl-1-methylxanthine (Sigma) at the concentration of 1.6×10^5 cells/ml and left for 15 minutes at room temperature. The reaction was initiated by addition of the cells into plates (12.5 μl/well). After incubation for 15 minutes at room temperature, 1% Triton X-100 was added to stop the reaction (25 μl/well) and the plates were left for 30 minutes at room temperature. Homogenous time-resolved fluorescence-based cAMP (Schering) detection was made according to the manufacturer's instruction. ARVOsx multilabel counter (Wallac) was used to measure HTRF (excitation 320 nm, emission 665 nm/620 nm, delay time 50 μs, window time 400 μs).
# Data was analyzed based on the ratio of fluorescence intensity of each well at 620 nm and 665 nm followed by cAMP quantification using cAMP standard curve. Enhancement of cAMP production elicited by each compound was normalized to the amount of cAMP produced by 1000 nM serotonin (Sigma).
# Human 5-HT4(d) = target: T3, Human 5-HT4(d) (Homo sapiens, UniProt Q13639); assay: Human 5-HT4 binding ([3H]-GR113808, SPA); settings: human 5-HT4(d) HEK293 membranes, read-out: h5HT4 Ki
# T3 construct: expressed in transfected cells; host or cells: HEK293
# Procedure: Human S-HT4(d) transfected HEK293 cells were prepared and grown in-house. The collected cells were suspended in 50 mM HEPES (pH 7.4 at 4° C.) supplemented with protease inhibitor cocktail (Boehringer, 1:1000 dilution) and homogenized using a hand held Polytron PT 1200 disruptor set at full power for 30 sec on ice. The homogenates were centrifuged at 40,000×g at 4° C. for 30 min. The pellets were then resuspended in 50 mM HEPES (pH 7.4 at 4° C.) and centrifuged once more in the same manner. The final pellets were resuspended in an appropriate volume of 50 mM HEPES (pH 7.4 at 25° C.), homogenized, aliquoted and stored at −80° C. until use. An aliquot of membrane fractions was used for protein concentration determination using BCA protein assay kit (PIERCE) and ARVOsx plate reader (Wallac).
# For the binding experiments, 25 μl of test compounds were incubated with 25 μl of [^3H]-GR113808 (Amersham, final 0.2 nM) and 150 μl of membrane homogenate and WGA-SPA beads (Amersham) suspension solutions (10 μg protein and 1 mg SPA beads/well) for 60 minutes at room temperature. Nonspecific binding was determined by 1 μM GR113808 (Tocris) at the final concentration. Incubation was terminated by centrifugation at 1000 rpm. Receptor-bound radioactivity was quantified by counting with MicroBeta plate counter (Wallac).
# 5-HT3 = target: T4, 5-HT3 (Cavia porcellus, UniProt O70212); assay: 5-HT3 antagonist assay in guinea-pig longitudinal muscle-myenteric plexus (LMMP)
# T4 construct: 5-HT3 antagonist assay in guinea-pig longitudinal muscle-myenteric plexus (LMMP); from tissue; host or cells: guinea-pig longitudinal muscle-myenteric plexus (LMMP)
# T4 sequence (O70212 20-490): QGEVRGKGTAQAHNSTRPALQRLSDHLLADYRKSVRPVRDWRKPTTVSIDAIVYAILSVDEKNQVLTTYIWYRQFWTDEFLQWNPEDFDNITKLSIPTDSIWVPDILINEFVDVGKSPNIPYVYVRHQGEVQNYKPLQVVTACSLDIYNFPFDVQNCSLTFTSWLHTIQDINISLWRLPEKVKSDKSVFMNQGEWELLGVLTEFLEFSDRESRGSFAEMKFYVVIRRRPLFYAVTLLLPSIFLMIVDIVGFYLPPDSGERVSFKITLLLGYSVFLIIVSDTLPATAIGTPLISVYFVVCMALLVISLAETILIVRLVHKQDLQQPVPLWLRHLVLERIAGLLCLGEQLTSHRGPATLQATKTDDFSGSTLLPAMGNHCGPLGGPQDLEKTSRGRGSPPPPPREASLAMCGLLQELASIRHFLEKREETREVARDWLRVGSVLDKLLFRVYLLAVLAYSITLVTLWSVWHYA
# Procedure: 5-HT3 Functional Assay Method
# 5-HT3 antagonist assay in guinea-pig longitudinal muscle-myenteric plexus (LMMP): The LMMP tissues were prepared according to the method of A. Butler et al. (Br. J. Pharmacology, 101: 591-598, 1990) and their 5-HT4 receptors were desensitized by performing in 10 μM of 5-methoxytryptamine-containing Krebs solution. Non-cumulative concentration-effect curves (CECs) to 5-HT were constructed across the range […] in half-log unit increments. After 60-minute-equilibration with antagonists, 2nd CECs to 5-HT were constructed until 1 mM.
# T2 sequence (Q13639 1-360 isoform Q13639-3): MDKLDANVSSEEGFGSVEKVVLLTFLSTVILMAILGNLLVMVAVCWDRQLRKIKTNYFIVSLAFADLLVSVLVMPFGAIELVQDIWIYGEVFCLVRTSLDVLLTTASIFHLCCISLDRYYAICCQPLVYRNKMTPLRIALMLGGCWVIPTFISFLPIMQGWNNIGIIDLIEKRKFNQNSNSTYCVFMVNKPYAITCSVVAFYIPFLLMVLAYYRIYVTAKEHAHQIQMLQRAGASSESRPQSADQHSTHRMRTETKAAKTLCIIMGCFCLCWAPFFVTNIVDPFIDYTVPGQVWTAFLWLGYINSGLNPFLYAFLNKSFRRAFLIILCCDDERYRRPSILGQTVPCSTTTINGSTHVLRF
# T3 sequence (Q13639 1-360 isoform Q13639-3): as above
SMILES,Ki (rat 5-HT3 receptors) [nM],melting point [°C],Emax [1] [%],EC50 [1] [nM],Ki (Human 5-HT4(d)) [nM],LMMP 5HT3 function pA (5-HT3; antagonism of 5-HT),Kb (5-HT3; read-out: pA2 (5HT3 antagonistic functional activity) (converted)) [nM],"cAMP 5HT4 function, % @1000 ([1]; @1000 [nM], normalized to 1000 nM serotonin) [%]",5HT4 receptor agonistic activity [1],"cAMP 5HT4 function, verdict in words [1]"
CN(C)C1(CCNC(=O)c2cc(Cl)cn3ccnc23)CCCCC1,785,–,–,–,–,–,–,–,–,–
O=C(NC1CN2CCC1CC2)c1cc(Cl)cn2ccnc12 (centres unmarked) [C],6,–,11,2660,–,–,–,–,inactive,inactive
"CCc1cn2c(N)c(Cl)cc(C(=O)NCC3CCNCC3)c2n1 [Example 2, 5-AMINO-6-CHLORO-2-ETHYL-N-(PIPERIDIN-4-YLMETHYL)IMIDAZO[1,2-a]PYRIDINE-8-CARBOXAMIDE]",48,153,58,40,109,6.6,251,–,–,–
CCCCN1CCC(CNC(=O)c2cc(Cl)cn3ccnc23)CC1 [compound B],4300,–,–,–,1.1,–,–,0,inactive,inactive

# Now from value to molecule, other results behind:
Ki (rat 5-HT3 receptors) [nM],melting point [°C],Emax [1] [%],EC50 [1] [nM],Ki (Human 5-HT4(d)) [nM],LMMP 5HT3 function pA (5-HT3; antagonism of 5-HT),Kb (5-HT3; read-out: pA2 (5HT3 antagonistic functional activity) (converted)) [nM],"cAMP 5HT4 function, % @1000 ([1]; @1000 [nM], normalized to 1000 nM serotonin) [%]",SMILES,5HT4 receptor agonistic activity [1],"cAMP 5HT4 function, verdict in words [1]"
–,237,–,–,–,–,–,–,"Cc1cn2c(N)c(Cl)cc(C(=O)NCC3CCNCC3)c2n1 (as salt: hydrochloride) [Example 1, 5-AMINO-6-CHLORO-2-METHYL-N-(PIPERIDIN-4-YLMETHYL)-IMIDAZO[1,2-a]PYRIDINE-8-CARBOXAMIDE]",–,–
26,–,88,13.6,58,–,–,–,"Cc1cn2c(N)c(Cl)cc(C(=O)NCC3CCNCC3)c2n1 [Example 1, 5-AMINO-6-CHLORO-2-METHYL-N-(PIPERIDIN-4-YLMETHYL)-IMIDAZO[1,2-a]PYRIDINE-8-CARBOXAMIDE]",–,–
